By IC50 is commonly meant the concentration that gives 50% inhibition.

The text below walks through data of publication PMC8036727, “In Vitro Anticancer Potential of Jasione montana and Its Main Components against Human Amelanotic Melanoma Cells” (International Journal of Molecular Sciences, 2021).

For experiment [1], the system named is human amelanotic melanoma cell line C32 (CRL-1585). Description: Fixable viability stain (FVS520) cytotoxicity assay, flow cytometry. The class given is cell-based. The conditions noted are these: C32 cells, 24 h, 10–300 μg/mL, mean ± SD. The procedure:
(§1) The human amelanotic melanoma cell line C32 (CRL-1585) and a normal human fibroblast cell line (PCS-201-012) were cultured in DMEM. DMEM was blended with 10% FBS, 10 µg/mL streptomycin, and […] penicillin. The cells were cultured in 5% CO2 and fully humidified at 37 °C. All tested compounds were used at a final DMSO concentration of not more than 0.5% (v/v). Cells cultured in drug-free DMEM were used as controls, and cells with the addition of only DMSO were used as solvent-controls; VLB was used as a positive control. The JM4 fraction was analyzed at the following concentrations: 25, 50 and 100 µg/mL and compound 22 and VLB were analyzed at 25 µg/mL. For the cytotoxicity assay, all extracts and compounds were tested at the following concentrations: 10, 25, 50, 100, 200, and 300 µg/mL.
This analysis was performed to estimate the level of viable cells after treatment with JM1–JM6, compounds 9, 12, 22 and VLB at concentrations ranging from 10 to 300 µg/mL. Cytotoxicity was evaluated by FVS520 via a flow cytometer (BD FACSCanto II flow cytometer, San Jose, CA, USA). In contrast to nonpermeable live cells, the permeable membranes of necrotic cells allow for the intracellular diffusion of FVS520 and the covalent binding of high concentrations of amines. Thus, necrotic cells contained a higher level of FVS520 and, consequently, increased fluorescence intensity than viable cells. After 24 h of incubation, C32 cells and fibroblasts were washed with PBS, trypsinized and resuspended in DMEM. The supernatant was removed, and 0.5 mL of Stain Buffer with the addition of 1 µL of FVS520 was added to each sample, which was vortexed immediately and kept for 10–15 min in the dark at room temperature. After incubation and the addition of 2 mL of PBS, the supernatant was removed, the cells were resuspended in 300 µL of PBS and then immediately subjected to analysis. The results were analyzed based on FACSDiva software (BD Biosciences Systems, San Jose, CA, USA). Based on the results of the cytotoxicity analysis, further research in this project focused on the determination of the full anticancer mechanism of the most promising fraction JM4 and compound 22.

Experiment [2] relates to normal human fibroblast cell line (PCS-201-012). The experiment is described as above. The class given is cell-based. The conditions noted are these: normal human fibroblasts, 24 h, 10–300 μg/mL. The procedure:
The human amelanotic melanoma cell line C32 (CRL-1585) and a normal human fibroblast cell line (PCS-201-012) were cultured in DMEM. […] Cells cultured in drug-free DMEM were used as controls, and cells with the addition of only DMSO were used as solvent-controls; VLB was used as a positive control. The JM4 fraction was analyzed at the following concentrations: 25, 50 and 100 µg/mL and compound 22 and VLB were analyzed at 25 µg/mL. For the cytotoxicity assay, all extracts and compounds were tested at the following concentrations: 10, 25, 50, 100, 200, and 300 µg/mL. […] Cytotoxicity was evaluated by FVS520 via a flow cytometer (BD FACSCanto II flow cytometer, San Jose, CA, USA). In contrast to nonpermeable live cells, the permeable membranes of necrotic cells allow for the intracellular diffusion of FVS520 and the covalent binding of high concentrations of amines. Thus, necrotic cells contained a higher level of FVS520 and, consequently, increased fluorescence intensity than viable cells. After 24 h of incubation, C32 cells and fibroblasts were washed with PBS, trypsinized and resuspended in DMEM. […] After incubation and the addition of 2 mL of PBS, the supernatant was removed, the cells were resuspended in 300 µL of PBS and then immediately subjected to analysis. The results were analyzed based on FACSDiva software (BD Biosciences Systems, San Jose, CA, USA). […]

The subject of experiment [3] is C32 melanoma cells. Description: Cell cycle analysis by PI staining, flow cytometry. It is filed as cell-based, human. To be noted: 25 μg/mL, 24 h. The procedure: The human amelanotic melanoma cell line C32 (CRL-1585) and a normal human fibroblast cell line (PCS-201-012) were cultured in DMEM. […] Cells cultured in drug-free DMEM were used as controls, and cells with the addition of only DMSO were used as solvent-controls; VLB was used as a positive control. The JM4 fraction was analyzed at the following concentrations: 25, 50 and 100 µg/mL and compound 22 and VLB were analyzed at 25 µg/mL. For the cytotoxicity assay, all extracts and compounds were tested at the following concentrations: 10, 25, 50, 100, 200, and 300 µg/mL. The allocation of cell cycle stage was analyzed on a FACSCanto II flow cytometer. C32 cells were cured with JM4, 22 and VLB for 24 h of incubation. Thereafter, the cells were harvested and adjusted with 1 mL of 70% EtOH and maintained at −20 °C for 24 h. Next, the cells were washed with PBS, treated with 50 µg/mL DNase-free RNase A solution for 5 min at room temperature, stained with 100 µg/mL PI for 30 min at 37 °C, and submitted to flow cytometry analysis. The results were analyzed with FACSDiva software.
Background: In flow cytometry, cells or beads pass a laser one at a time.

The test system of experiment [4] is C32 melanoma cells. The experiment in a line: Annexin V-FITC/PI binding apoptosis assay, flow cytometry. The class given is cell-based, human. To be noted: 25 μg/mL, 24 h; for apoptotic cells: untreated control 7.3 ± 1.3%.
Protocol: During programmed cell death, annexin V has a high affinity for phosphatidylserine (PS) when it is exposed to the extracellular environment. […] The assay allows differentiability between viable cells (annexin V–/PI–) and early (annexin V–/PI+) and late (annexin V+/PI+) apoptotic cells, as well as necrotic cells (annexin V–/PI+).
The human amelanotic melanoma cell line C32 (CRL-1585) and a normal human fibroblast cell line (PCS-201-012) were cultured in DMEM. DMEM was blended with 10% FBS, 10 µg/mL streptomycin, and 10 units/mol penicillin. The cells were cultured in 5% CO2 and fully humidified at 37 °C. All tested compounds were used at a final DMSO concentration of not more than 0.5% (v/v). Cells cultured in drug-free DMEM were used as controls, and cells with the addition of only DMSO were used as solvent-controls; VLB was used as a positive control.
Characterization of the mode of apoptosis induced by JM4, 22 and VLB was performed in C32 cells via flow cytometry using a FITC Annexin V Apoptosis Detection Kit II. All stages of programmed cell death could be identified by annexin V bound with high affinity to PS. PI is a standard flow cytometric viability explorer that stains cells that interfere with the cell membrane, and it can be used to distinguish necrotic cells from dead cells. After the C32 cells were incubated for 24 h with various concentrations of JM4, 22 and VLB, they were trypsinized and resuspended in binding buffer. After that, 5 µL of annexin V-FITC and 5 µL of PI were added and maintained for 15 min in the dark at room temperature. The results were analyzed using FACSDiva software.
The test system of experiment [5] is C32 melanoma cells. The experiment in a line: Mitochondrial membrane potential (MMP), JC-1 MitoScreen, flow cytometry. The class given is cell-based, human. To be noted: 25 μg/mL, 24 h; untreated control 5.2 ± 0.1%. How it is done:
The human amelanotic melanoma cell line C32 (CRL-1585) and a normal human fibroblast cell line (PCS-201-012) were cultured in DMEM. […] Cells cultured in drug-free DMEM were used as controls, and cells with the addition of only DMSO were used as solvent-controls; VLB was used as a positive control. The JM4 fraction was analyzed at the following concentrations: 25, 50 and 100 µg/mL and compound 22 and VLB were analyzed at 25 µg/mL. For the cytotoxicity assay, all extracts and compounds were tested at the following concentrations: 10, 25, 50, 100, 200, and 300 µg/mL. […] After incubation, the cells were flushed again, resuspended in PBS, and immediately subjected to BD FACSCanto II flow cytometry analysis. The results were analyzed using FACSDiva.

The test system of experiment [6] is caspase-8 in C32 melanoma cells. Description: FLICA Caspase-8 assay, flow cytometry. The class given is cell-based, human. To be noted: 25 μg/mL, 24 h. How it is done:
(§2) The human amelanotic melanoma cell line C32 (CRL-1585) and a normal human fibroblast cell line (PCS-201-012) were cultured in DMEM. […] Cells cultured in drug-free DMEM were used as controls, and cells with the addition of only DMSO were used as solvent-controls; VLB was used as a positive control. The JM4 fraction was analyzed at the following concentrations: 25, 50 and 100 µg/mL and compound 22 and VLB were analyzed at 25 µg/mL. For the cytotoxicity assay, all extracts and compounds were tested at the following concentrations: 10, 25, 50, 100, 200, and 300 µg/mL. Determination of the caspase-3, caspase-8, caspase-9, and caspase-10 activity were carried out by the following kits: FLICA Caspase-3/7 Assay Kit, FLICA Caspase-8 Assay Kit, FLICA Caspase-9 Assay Kit, and FLICA Caspase-10 Assay Kit using a BD FACSCanto II flow cytometer. […] After 1 h, the cells were flushed with apoptosis wash buffer and resuspended in […] of the same reagent with […] PI. The procedure of determining the activity of each caspase was carried out analogously. The results were analyzed with FACSDiva software.

Experiment [7] relates to caspase-9 in C32 melanoma cells. The experiment in a line: FLICA Caspase-9 assay, flow cytometry. The class given is cell-based, human. The conditions noted are these: 25 μg/mL, 24 h. The procedure: as §2
The test system of experiment [8] is caspase-10 in C32 melanoma cells. The experiment in a line: FLICA Caspase-10 assay, flow cytometry. It is filed as cell-based, human. To be noted: 25 μg/mL, 24 h. How it is done:
as §2

The subject of experiment [9] is C32 melanoma cells. The experiment in a line: Autophagy Assay, Red, flow cytometry. It is filed as cell-based, human. The conditions noted are these: 25 μg/mL, 24 h. How it is done: as §1
An autophagy assay was carried out to detect the impact of JM4, compound 22, and VLB on the autophagy process of C32 cells via flow cytometry using an Autophagy Assay, Red kit. The probe is a cell-permeable aliphatic molecule that brightly fluoresces after unjumbling […] and autolysosomes into lipid membranes. […] The results were analyzed with FACSDiva software.

The subject of experiment [10] is caspase-3 in C32 melanoma cells. The experiment in a line: FLICA Caspase-3/7 assay, flow cytometry. It is filed as cell-based, human. The conditions noted are these: 25 μg/mL, 24 h; untreated control 4.2 ± 1.3%. How it is done: as §1
Determination of the caspase-3, caspase-8, caspase-9, and caspase-10 activity were carried out by the following kits: FLICA Caspase-3/7 Assay Kit, FLICA Caspase-8 Assay Kit, FLICA Caspase-9 Assay Kit, and FLICA Caspase-10 Assay Kit using a BD FACSCanto II flow cytometer. C32 cells were incubated with JM4, compound 22 and VLB for 24 h, washed twice with PBS, resuspended in buffer supplemented with […] of FLICA reagent, and incubated. […] The results were analyzed with FACSDiva software.

≈ marks a conversion by molar mass, not a printed value. Where a name gives a salt, the structure may show the parent alone.

As for `O=c1cc(-c2ccc(O)c(O)c2)oc2cc(OC3OC(CO)C(O)C(O)C3O)cc(O)c12` [Compound 12, luteolin 7-O-β-D-glucoside], in [1], the half-inhibitory concentration (IC50) is > 300 µg/mL.

Take `O=c1cc(-c2ccc(O)c(O)c2)oc2cc(OC3OC(CO)C(O)C(O)C3OC3OCC(O)C(O)C3O)cc(O)c12` [Compound 9, luteolin 7-O-β-D-xylosyl-(1-2)-β-D-glucoside]: in experiment [1], the IC50 is > 300 µg/mL.

As for `O=c1cc(-c2ccc(O)c(O)c2)oc2cc(O)cc(O)c12` [Compound 22, luteolin], the IC50 worked out at 95.1 ± 7.2 µg/mL (≈ 332 µM) in experiment [1] and 194 ± 4.4 µg/mL (≈ 678 µM) in experiment [2]. Also, the “percentage of C32 cells in G2/M phase” value in the experiment on C32 melanoma cells [3] (untreated control 6.1 ± 0.6%) is 14.6 ± 1.5%. The “percentage of C32 cells in G1 phase” value with C32 melanoma cells [3] (untreated control 73.0 ± 0.9%) worked out at 35.3 ± 3.0%. This compound also came in with an apoptotic cells with C32 melanoma cells [4] of 29.2 ± 3.0%. In addition, the “cells with a reduced MMP” value with C32 melanoma cells [5] amounted to 31.8 ± 0.7%. The “cells with active caspase-8” value in experiment [6] is given as 20.2 ± 1.5%. The “cells with active caspase-9” value in [7] worked out at 16.6 ± 0.8%. Also, the “cells with active caspase-10” value in experiment [8] amounted to 15.4 ± 0.7%.

Turning to `CC[C@]1(O)C[C@@H]2CN(CCc3c([nH]c4ccccc34)[C@@](C(=O)OC)(c3cc4c(cc3OC)N(C)[C@H]3[C@@](O)(C(=O)OC)[C@H](OC(C)=O)[C@]5(CC)C=CCN6CC[C@]43[C@@H]65)C2)C1` [VLB, vinblastine sulfate], the concentration for half-maximal inhibition (IC50) in experiment [1] stood at 148 ± 7.7 µg/mL. Also, in the experiment on C32 melanoma cells [4], the necrotic cells came out at 4.2 ± 1.0% and the apoptotic cells was determined as 27.4 ± 1.0%. The autophagic cells with C32 melanoma cells [9] (untreated control 4.8 ± 0.8%) was found to be 76.7 ± 0.5%. Besides, the nonautophagic cells in the experiment on C32 melanoma cells [9] (untreated control 94.5 ± 1.0%) was 22.4 ± 0.6%. In addition, the “cells with a reduced MMP” value in the experiment with C32 melanoma cells [5] is given as 34.1 ± 3.0%. The “cells with active caspase-3” value in [10] is on record as 23.4 ± 3.5%.
